Experimental data published in ChEMBL document CHEMBL3994622, “Design and synthesis of new RAF kinase-inhibiting antiproliferative quinoline derivatives. Part 2: Diarylurea derivatives” (Eur J Med Chem, 2017).

What was measured:
Assay type in all cases: functional
[1] = test system: SF-268; experiment: Growth inhibition of human SF268 cells assessed as cell growth at 10 uM incubated for 48 hrs by sulforhodamine B assay relative to control; conditions: SF-268, 48 h, read-out: Activity
[2] = test system: MDA-MB-435; experiment: Growth inhibition of human MDA-MB-435 cells assessed as cell growth at 10 uM incubated for 48 hrs by sulforhodamine B assay relative to control; conditions: MDA-MB-435, 48 h, read-out: Activity
[3] = test system: NCI-H23; experiment: Growth inhibition of human NCI-H23 cells assessed as cell growth at 10 uM incubated for 48 hrs by sulforhodamine B assay relative to control; conditions: NCI-H23, 48 h, read-out: Activity
[4] = test system: OVCAR-5; experiment: Growth inhibition of human OVCAR5 cells assessed as cell growth at 10 uM incubated for 48 hrs by sulforhodamine B assay relative to control; conditions: OVCAR-5, 48 h, read-out: Activity
[5] = test system: ACHN; experiment: Growth inhibition of human ACHN cells assessed as cell growth at 10 uM incubated for 48 hrs by sulforhodamine B assay relative to control; conditions: read-out: Activity
[6] = test system: M14; experiment: Growth inhibition of human M14 cells assessed as cell growth at 10 uM incubated for 48 hrs by sulforhodamine B assay relative to control; conditions: M14, 48 h, read-out: Activity
[7] = test system: SW-620; experiment: Growth inhibition of human SW620 cells assessed as cell growth at 10 uM incubated for 48 hrs by sulforhodamine B assay relative to control; conditions: SW-620, 48 h, read-out: Activity
[8] = test system: IGROV-1; experiment: Growth inhibition of human IGROV1 cells assessed as cell growth at 10 uM incubated for 48 hrs by sulforhodamine B assay relative to control; conditions: IGROV-1, 48 h, read-out: Activity
[9] = test system: T47D; experiment: Growth inhibition of human T47D cells assessed as cell growth at 10 uM incubated for 48 hrs by sulforhodamine B assay relative to control; conditions: read-out: Activity
[10] = test system: SF-295; experiment: Growth inhibition of human SF295 cells assessed as cell growth at 10 uM incubated for 48 hrs by sulforhodamine B assay relative to control; conditions: SF-295, 48 h, read-out: Activity
[11] = test system: HCT-15; experiment: Growth inhibition of human HCT15 cells assessed as cell growth at 10 uM incubated for 48 hrs by sulforhodamine B assay relative to control; conditions: HCT-15, 48 h, read-out: Activity
[12] = test system: COLO 205; experiment: Growth inhibition of human COLO205 cells assessed as cell growth at 10 uM incubated for 48 hrs by sulforhodamine B assay relative to control; conditions: COLO 205, 48 h, read-out: Activity
[13] = test system: 786-0; experiment: Growth inhibition of human 786-0 cells assessed as cell growth at 10 uM incubated for 48 hrs by sulforhodamine B assay relative to control; conditions: 786-0, 48 h, read-out: Activity
[14] = test system: MDA-MB-231; experiment: Growth inhibition of human MDA-MB-231 cells assessed as cell growth at 10 uM incubated for 48 hrs by sulforhodamine B assay relative to control; conditions: MDA-MB-231, 48 h, read-out: Activity
[15] = test system: MCF7; experiment: Growth inhibition of human MCF7 cells assessed as cell growth at 10 uM incubated for 48 hrs by sulforhodamine B assay relative to control; conditions: MCF7, 48 h, read-out: Activity
[16] = test system: SF-539; experiment: Growth inhibition of human SF539 cells assessed as cell growth at 10 uM incubated for 48 hrs by sulforhodamine B assay relative to control; conditions: SF-539, 48 h, read-out: Activity
[17] = test system: A498; experiment: Growth inhibition of human A498 cells assessed as cell growth at 10 uM incubated for 48 hrs by sulforhodamine B assay relative to control; conditions: A498, 48 h, read-out: Activity
[18] = test system: OVCAR-8; experiment: Growth inhibition of human OVCAR8 cells assessed as cell growth at 10 uM incubated for 48 hrs by sulforhodamine B assay relative to control; conditions: OVCAR-8, 48 h, read-out: Activity
[19] = test system: NCI-H522; experiment: Growth inhibition of human NCI-H522 cells assessed as cell growth at 10 uM incubated for 48 hrs by sulforhodamine B assay relative to control; conditions: NCI-H522, 48 h, read-out: Activity
[20] = test system: SNB-19; experiment: Growth inhibition of human SNB19 cells assessed as cell growth at 10 uM incubated for 48 hrs by sulforhodamine B assay relative to control; conditions: SNB-19, 48 h, read-out: Activity
[21] = test system: LOX IMVI; experiment: Growth inhibition of human LOXIMVI cells assessed as cell growth at 10 uM incubated for 48 hrs by sulforhodamine B assay relative to control; conditions: read-out: Activity
[22] = test system: HOP-92; experiment: Growth inhibition of human HOP92 cells assessed as cell growth at 10 uM incubated for 48 hrs by sulforhodamine B assay relative to control; conditions: HOP-92, 48 h, read-out: Activity
[23] = test system: UACC-257; experiment: Growth inhibition of human UACC257 cells assessed as cell growth at 10 uM incubated for 48 hrs by sulforhodamine B assay relative to control; conditions: UACC-257, 48 h, read-out: Activity
[24] = test system: NCI/ADR-RES; experiment: Growth inhibition of human NCI/ADR-RES cells assessed as cell growth at 10 uM incubated for 48 hrs by sulforhodamine B assay relative to control; conditions: read-out: Activity
[25] = test system: HT-29; experiment: Growth inhibition of human HT-29 cells assessed as cell growth at 10 uM incubated for 48 hrs by sulforhodamine B assay relative to control; conditions: HT-29, 48 h, read-out: Activity
[26] = test system: SK-MEL-28; experiment: Growth inhibition of human SK-MEL-28 cells assessed as cell growth at 10 uM incubated for 48 hrs by sulforhodamine B assay relative to control; conditions: SK-MEL-28, 48 h, read-out: Activity
[27] = test system: SNB-75; experiment: Growth inhibition of human SNB75 cells assessed as cell growth at 10 uM incubated for 48 hrs by sulforhodamine B assay relative to control; conditions: SNB-75, 48 h, read-out: Activity
[28] = test system: CCRF-CEM; experiment: Growth inhibition of human CCRF-CEM cells assessed as cell growth at 10 uM incubated for 48 hrs by sulforhodamine B assay relative to control; conditions: read-out: Activity
[29] = test system: PC-3; experiment: Growth inhibition of human PC3 cells assessed as cell growth at 10 uM incubated for 48 hrs by sulforhodamine B assay relative to control; conditions: PC-3, 48 h, read-out: Activity
[30] = test system: BT-549; experiment: Growth inhibition of human BT549 cells assessed as cell growth at 10 uM incubated for 48 hrs by sulforhodamine B assay relative to control; conditions: BT-549, 48 h, read-out: Activity
[31] = test system: MOLT-4; experiment: Growth inhibition of human MOLT4 cells assessed as cell growth at 10 uM incubated for 48 hrs by sulforhodamine B assay relative to control; conditions: MOLT-4, 48 h, read-out: Activity
[32] = test system: K562; experiment: Growth inhibition of human K562 cells assessed as cell growth at 10 uM incubated for 48 hrs by sulforhodamine B assay relative to control; conditions: K562, 48 h, read-out: Activity
[33] = test system: HL-60(TB); experiment: Growth inhibition of human HL-60(TB) cells assessed as cell growth at 10 uM incubated for 48 hrs by sulforhodamine B assay relative to control; conditions: HL-60, 48 h, read-out: Activity

Row | Compound | growth at 10 µM [1] [%] | growth at 10 µM [2] [%] | growth at 10 µM [3] [%] | growth at 10 µM [4] [%] | growth at 10 µM [5] [%] | growth at 10 µM [6] [%] | growth at 10 µM [7] [%] | growth at 10 µM [8] [%] | growth at 10 µM [10] [%] | growth at 10 µM [11] [%] | growth at 10 µM [12] [%] | growth at 10 µM [13] [%] | growth at 10 µM [14] [%] | growth at 10 µM [15] [%] | growth at 10 µM [16] [%] | growth at 10 µM [17] [%] | growth at 10 µM [18] [%] | growth at 10 µM [19] [%] | growth at 10 µM [20] [%] | growth at 10 µM [21] [%] | also measured
1 | COc1cc2cc(Oc3ccc(NC(=O)Nc4cc(C(F)(F)F)cc(C(F)(F)F)c4)cc3)c(C)nc2cc1OC | 15.3 | -2.55 | 2.28 | 14.6 | 5.82 | 9.04 | 15.9 | 19.9 | -59.2 | 2.75 | -81.2 | -16.6 | -36.1 | 0.59 | -41 | -11.5 | 14.2 | -33.4 | 15.5 | 1.98 | growth at 10 µM [9]: 7.52%; growth at 10 µM [22]: -25.4%; growth at 10 µM [23]: -4.68%; growth at 10 µM [24]: 7.03%; growth at 10 µM [25]: 4.89%; growth at 10 µM [26]: 7.66%; growth at 10 µM [27]: 9.73%; growth at 10 µM [28]: 0.19%; growth at 10 µM [29]: 6.82%; growth at 10 µM [30]: 1.44%
2 | COc1cc2cc(Oc3ccc(NC(=O)Nc4ccc(C)cc4)cc3)c(C)nc2cc1OC | 80.2 | 107 | 95.5 | 110 | 103 | 124 | 107 | 101 | 107 | 103 | 111 | 126 | 85.6 | 94.5 | 108 | 116 | 87.4 | 69.9 | 97.1 | 102 | growth at 10 µM [9]: 101%; growth at 10 µM [31]: 82.4%; growth at 10 µM [32]: 90.8%; growth at 10 µM [33]: 93%; growth at 10 µM [23]: 112%; growth at 10 µM [24]: 107%; growth at 10 µM [25]: 115%; growth at 10 µM [26]: 109%; growth at 10 µM [27]: 56.3%; growth at 10 µM [28]: 101%; growth at 10 µM [29]: 94.5%; growth at 10 µM [30]: 130%
3 | COc1cc2cc(Oc3ccc(NC(=O)Nc4ccccc4)cc3)c(C)nc2cc1OC | 88.1 | 89.4 | 87.2 | 99.7 | 84.5 | 93.7 | 105 | 103 | 54 | 64.1 | 85.7 | 94.8 | 80 | 72.8 | 78 | 54 | 71.9 | 67.2 | 94.8 | 82.1 | growth at 10 µM [9]: 97.1%; growth at 10 µM [31]: 37.9%; growth at 10 µM [32]: 42.8%; growth at 10 µM [33]: 70.5%; growth at 10 µM [23]: 92.4%; growth at 10 µM [24]: 84.3%; growth at 10 µM [25]: 48.9%; growth at 10 µM [26]: 96.2%; growth at 10 µM [27]: 75.8%; growth at 10 µM [28]: 55.2%; growth at 10 µM [29]: 60.4%; growth at 10 µM [30]: 104%
4 | COc1cc2cc(Sc3ccc(NC(=O)Nc4ccc(Cl)c(Cl)c4)cc3)c(C)nc2cc1OC | 72.6 | 76.7 | 84.7 | 84.7 | 72.6 | 81.3 | 89.9 | 75.3 | 56.5 | 75.9 | 87.8 | 73.4 | 87.9 | 75.3 | 86 | 73 | 83.6 | 66 | 84.9 | 94.7 | growth at 10 µM [31]: 38.1%; growth at 10 µM [32]: 52.5%; growth at 10 µM [33]: 77.3%; growth at 10 µM [22]: 71.2%; growth at 10 µM [23]: 90%; growth at 10 µM [24]: 86.2%; growth at 10 µM [25]: 91.9%; growth at 10 µM [26]: 96.5%; growth at 10 µM [27]: 86.4%; growth at 10 µM [28]: 50.7%; growth at 10 µM [29]: 56.1%; growth at 10 µM [30]: 77.8%
